The values that follow are results of earlier work, collected in PMC12697872, “Rethinking the AI Paradigm for Solubility Prediction of Drug‑Like Compounds with Dual‐Perspective Modeling and Experimental Validation” (Advanced Science, 2025).

For the first series the following is noted: discarded ambiguous entries of DrugBank database; ref DrugBank database (version 5.1.12) 24; cited from earlier work.
Take `Cc1ncc(COP(=O)(O)O)c(C=O)c1O` [54-47-7]: the “Experimental solubility (descriptive)” value is reported as “Appreciable”.

The series is the same for the next values; noted with them: experimental aqueous solubility as logS, sheet "DrugBank" of Supplement 2; ref DrugBank; cited from earlier work.
For the molecule `O=C(O)Cc1ccccc1Oc1ccc(Cl)cc1Cl` [fenclofenac], the ex_logS is given as -3.85.
In the case of `C[C@]12C[C@H](O)[C@H]3[C@@H](CCC4=CC(=O)CC[C@@]43C)[C@@H]1CC[C@@H]2C(=O)CO` [corticosterone], the ex_logS is -3.24.
Take `CSCC[C@H](N)C(=O)O` [Methionine]: the ex_logS was -0.421.
In the case of `O=C(C1CCCCC1)N1CC(=O)N2CCc3ccccc3C2C1` (centres unmarked) [Praziquantel], the ex_logS is listed as -2.893.
On to `NC(=O)CCC/N=C(\c1ccc(Cl)cc1)c1cc(F)ccc1O` [Progabide], for which the ex_logS is on record as -3.674.
On to `C=CCc1ccccc1OCC(O)CNC(C)C` (centres unmarked) [Alprenolol], for which the ex_logS was -2.659.
As to `CCN1C(=O)NC(c2ccccc2)C1=O` (centres unmarked) [Ethotoin], the ex_logS is -1.587.
Regarding Streptozocin, the ex_logS is -1.7186.
`Cc1cccc(N(C)C(=S)Oc2ccc3ccccc3c2)c1` [Tolnaftate]: the ex_logS is reported as -6.641.
For the molecule `COc1ccc(C2C(=O)c3ccccc3C2=O)cc1` [Anisindione], the ex_logS was -3.5.
Take `c1ccc2[nH]c(-c3cscn3)nc2c1` [Thiabendazole]: the ex_logS was -3.605.
On to `CO[C@H]1/C=C/O[C@@]2(C)Oc3c(C)c(O)c4c(c3C2=O)C2=NC3(CCN(CC(C)C)CC3)NC2=C(NC(=O)/C(C)=C\C=C\[C@H](C)[C@H](O)[C@@H](C)[C@@H](O)[C@@H](C)[C@H](OC(C)=O)[C@@H]1C)C4=O` [Rifabutin], for which the ex_logS was -3.649.
On to `C[C@@H]1C[C@H]2[C@@H]3CCC4=CC(=O)C=C[C@]4(C)[C@@]3(F)[C@@H](O)C[C@]2(C)[C@H]1C(=O)CO` [Desoximetasone], for which the ex_logS is reported as -3.951.
With `N[C@@H](Cc1c[nH]cn1)C(=O)O` [Histidine], the ex_logS is -0.5318.
With `Clc1ccc2c(c1)C(c1ccccc1)=NCc1nncn1-2` [Estazolam], the ex_logS was -5.293.
On to `C=CC(N)CCC(=O)O` (centres unmarked) [Vigabatrin], for which the ex_logS was -0.37.
In the case of `C[C@]12CC[C@H](O)CC1=CC[C@@H]1[C@@H]2CC[C@]2(C)C(=O)CC[C@@H]12` [Prasterone], the ex_logS was -3.657.
In the case of `CC(C)(C)NCC(O)COc1cccc2c1CC(O)C(O)C2` (centres unmarked) [Nadolol], the ex_logS was -1.57.
As for `CCCCC[C@H](O)/C=C/[C@H]1[C@H](O)CC(=O)[C@@H]1C/C=C\CCCC(=O)O` [Dinoprostone], the ex_logS is given as -3.783.
On to `O=C1CCC(N2C(=O)c3ccccc3C2=O)C(=O)N1` (centres unmarked) [Thalidomide], for which the ex_logS was -2.676.
As to `Cn1c(=O)c2[nH]cnc2n(C)c1=O` [Theophylline], the ex_logS is on record as -1.389.
For the molecule `CC(C)NCC(O)c1cc(O)cc(O)c1` (centres unmarked) [Orciprenaline], the ex_logS is listed as -4.338.
Take `CC(O)(CS(=O)(=O)c1ccc(F)cc1)C(=O)Nc1ccc(C#N)c(C(F)(F)F)c1` (centres unmarked) [Bicalutamide]: the ex_logS is -4.935.
Consider `CCC1(CCC(C)C)C(=O)NC(=O)NC1=O` [Amobarbital], for which the ex_logS is on record as -2.574.
As for `O=C1CN=C(c2ccccn2)c2cc(Br)ccc2N1` [bromazepam], the ex_logS was -3.48.
With `CC(C)NCC1CCc2cc(CO)c([N+](=O)[O-])cc2N1` (centres unmarked) [Oxamniquine], the ex_logS is reported as -2.532.
As to `C[C@H]1C[C@H]2[C@@H]3CCC4=CC(=O)C=C[C@]4(C)[C@@]3(F)[C@@H](O)C[C@]2(C)[C@@]1(O)C(=O)CO` [Betamethasone], the ex_logS is -3.771.
As for `OC(O)C(Cl)(Cl)Cl` [Chloral hydrate], the ex_logS is given as 0.6807.
In the case of `CC(=O)[C@@]1(C)CC[C@H]2[C@@H]3C=C(C)C4=CC(=O)CC[C@]4(C)[C@H]3CC[C@@]21C` [Medrogestone], the ex_logS is -5.277.
Regarding `O=c1[nH]cnc2nc[nH]c12` [Hypoxanthine], the ex_logS is listed as -2.2888.
As to `C=CCC1(C(C)CCC)C(=O)N=C(S)NC1=O` (centres unmarked) [Thiamylal], the ex_logS is reported as -3.7117.
Take `S=c1[nH]cnc2nc[nH]c12` [Mercaptopurine]: the ex_logS is -3.089.
`C[C@]1(O)CC[C@H]2[C@@H]3CCC4=CC(=O)CC[C@]4(C)[C@@]3(F)[C@@H](O)C[C@@]21C` [Fluoxymesterone]: the ex_logS is -3.698.

Staying with this series, now noted: experimental aqueous solubility as logS, sheet "DrugBank"; ref DrugBank database; cited from earlier work.
Turning to `C=CC1=C(C(=O)O)N2C(=O)[C@@H](NC(=O)/C(=N\O)c3csc(N)n3)[C@H]2SC1` [Cefdinir], the ex_logS is -1.65.
As for `O=C(O)c1cccnc1C(=O)O` [Quinolinic Acid], the ex_logS is -1.182.
Regarding `CCN(CC)C(=S)SSC(=S)N(CC)CC` [Disulfiram], the ex_logS is -4.86.
As to `Cc1c(OCC(F)(F)F)ccnc1C[S+]([O-])c1nc2ccccc2[nH]1` (centres unmarked) [Lansoprazole], the ex_logS is given as -5.581.
In the case of `O=C(O)c1cccnc1` [Niacin], the ex_logS is listed as -0.835.
For `Cn1c(=O)c2c(ncn2CC(O)CO)n(C)c1=O` (centres unmarked) [Dyphylline], the ex_logS is recorded as 0.1172.
Regarding `Nc1nc(CC(=O)Nc2ccc(CCNC[C@H](O)c3ccccc3)cc2)cs1` [Mirabegron], the ex_logS is on record as -3.684.
On to `[H]/N=C(\N/C(=N/[H])Nc1ccc(Cl)cc1)NC(C)C` [Proguanil], for which the ex_logS is recorded as -3.211.
On to `CC(=O)/N=c1/sc(S(N)(=O)=O)nn1C` [Methazolamide], for which the ex_logS is reported as -1.829.
Consider `C[C@]12CCC(=O)C=C1CC[C@@H]1[C@@H]2CC[C@@]2(C)[C@H]1CC[C@]2(C)O` [Methyltestosterone], for which the ex_logS is reported as -3.95.
As to `Cc1oncc1C(=O)Nc1ccc(C(F)(F)F)cc1` [Leflunomide], the ex_logS is reported as -4.109.
Turning to `C[C@]12CC[C@H]3[C@@H](CCC4=CC(=O)CC[C@@]43C)[C@@H]1CC[C@@H]2O` [Testosterone], the ex_logS is -4.091.
In the case of `Cc1ccnc2c1ccc1c(C)ccnc12` [4,7-Dimethyl-[1,10]Phenanthroline], the ex_logS was -3.968.
For `Oc1c(Cl)cc(Cl)cc1Sc1cc(Cl)cc(Cl)c1O` [Bithionol], the ex_logS is reported as -4.949.
With `COc1cc2c(Nc3ccc(Br)cc3F)ncnc2cc1OCC1CCN(C)CC1` [Vandetanib], the ex_logS was -4.774.
On to `O=C(O)[C@@H](O)c1ccccc1` [(S)-Mandelic acid], for which the ex_logS is 0.07541.
On to `COc1cc(N)c(Cl)cc1C(=O)NC1CCN(CCCOc2ccc(F)cc2)CC1OC` (centres unmarked) [Cisapride], for which the ex_logS is reported as -5.235.
Regarding `CC1=C(/C=C/C(C)=C/C=C/C(C)=C/CO)C(C)(C)CCC1` [Vitamin A], the ex_logS was -5.63.
For the molecule `OC[C@H]1O[C@@H](n2cnc3c2NC=NC[C@H]3O)C[C@@H]1O` [Pentostatin], the ex_logS is listed as -0.9514.
Take `Cc1c(OCC(F)(F)F)ccnc1C[S@@+]([O-])c1nc2ccccc2[nH]1` [Dexlansoprazole]: the ex_logS was -3.245.
As for `Nc1ncnc2[nH]cnc12` [Adenine], the ex_logS is -2.1179.
As to `C[C@H](Cn1cnc2c(N)ncnc21)OCP(=O)(O)O` [Tenofovir], the ex_logS was -1.3311.
On to `CN1CCN(C(c2ccccc2)c2ccccc2)CC1` [Cyclizine], for which the ex_logS is reported as -2.4255.
Turning to `COc1ccccc1OCC(O)COC(N)=O` (centres unmarked) [Methocarbamol], the ex_logS is recorded as -0.9845.
`CCc1nc(N)nc(N)c1-c1ccc(Cl)cc1` [Pyrimethamine]: the ex_logS was -3.313.
Turning to `CCC1(C)CC(=O)NC1=O` (centres unmarked) [Ethosuximide], the ex_logS was -0.5564.
As to `CCOC(=O)C1=C(C)NC(C)=C(C(=O)OC)C1c1cccc(Cl)c1Cl` (centres unmarked) [Felodipine], the ex_logS is listed as -4.29.
Take `CCC(=O)c1ccc2c(c1)N(CC(C)N(C)C)c1ccccc1S2` (centres unmarked) [Propiomazine]: the ex_logS was -5.875.
As for `Nc1ccc(S(=O)(=O)Nc2ccnn2-c2ccccc2)cc1` [Sulfaphenazole], the ex_logS was -2.321.
In the case of `CN1CCN(C(=O)OC2c3nccnc3C(=O)N2c2ccc(Cl)cn2)CC1` (centres unmarked) [Zopiclone], the ex_logS is listed as -3.411.
In the case of `CCC(c1ccccc1)c1c(O)c2ccccc2oc1=O` (centres unmarked) [Phenprocoumon], the ex_logS is on record as -4.337.
On to `COC(=O)C(c1ccccc1)C1CCCCN1` (centres unmarked) [Methylphenidate], for which the ex_logS is -2.269.
On to `C[C@@H]1O[C@@H](O[C@H]2C[C@@H](O)[C@]3(CO)[C@H]4[C@H](O)C[C@]5(C)[C@@H](C6=CC(=O)OC6)CC[C@]5(O)[C@@H]4CC[C@]3(O)C2)[C@H](O)[C@H](O)[C@H]1O` [Ouabain], for which the ex_logS is given as -1.754.
With `Nc1ncnc2c1ccn2[C@@H]1O[C@H](CO)[C@@H](O)[C@H]1O` [Tubercidin], the ex_logS is recorded as -1.948.
Consider `CC(CN1c2ccccc2Sc2ccccc21)N(C)C` (centres unmarked) [Promethazine], for which the ex_logS is -4.261.
For `CCOC(=O)[C@H](CCc1ccccc1)N[C@H]1CCc2ccccc2N(CC(=O)O)C1=O` [Benazepril], the ex_logS is listed as -1.349.
With `Oc1ccc(OCc2ccccc2)cc1` [Monobenzone], the ex_logS is recorded as -2.902.
Regarding `CCCCC(C)(O)C/C=C/[C@H]1[C@H](O)CC(=O)[C@@H]1CCCCCCC(=O)OC` (mixture of isomers) [Misoprostol], the ex_logS is recorded as -2.379.
Consider `CC[C@H]1OC(=O)[C@H](C)[C@@H](O[C@H]2C[C@@](C)(OC)[C@@H](O)[C@H](C)O2)[C@H](C)[C@@H](O[C@@H]2O[C@H](C)C[C@H](N(C)C)[C@H]2O)[C@](C)(OC)C[C@@H](C)C(=O)[C@H](C)[C@@H](O)[C@]1(C)O` [Clarithromycin], for which the ex_logS is listed as -6.355.
As for `O=C(O)Cc1ccccc1Nc1c(Cl)cccc1Cl` [Diclofenac], the ex_logS was -5.097.
With `CC(=O)OCC(=O)[C@@]1(O)CC[C@H]2[C@@H]3CCC4=CC(=O)CC[C@]4(C)[C@H]3C(=O)C[C@@]21C` [Cortisone acetate], the ex_logS is listed as -4.304.
Consider `NC(=O)N/N=C/c1ccc([N+](=O)[O-])o1` [Nitrofural], for which the ex_logS is on record as -2.975.
With `CCCCOC(=O)c1ccc(N)cc1` [Butamben], the ex_logS is -3.14.
